This passage reports GI50 and TGI results from PubChem BioAssay (NCI).

Where “and” joins values, the source holds several entries; their conditions need not be identical. Equal entries are not always repeated.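 Growth conditions: 96-well plates. Treatment: test compound, 48 hours, 5 concentrations. Analysis: linear interpolation between bracketing concentrations; unreached endpoints set to highest concentration. Abbreviation: GI50, concentration required for 50% inhibition of growth. TGI: concentration producing complete growth inhibition.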 Bounds are passed on as bounds.

Among the test systems are A549 NSCLC; CCRF-CEM leukemia; M14 melanoma; MDA-MB-231 breast; NCI-H23 lung; SK-MEL-2 melanoma; SK-MEL-28 melanoma; SK-MEL-5 melanoma; SNB-75 CNS; TK-10 renal.
Holding throughout (experiment): NCI tumour cell line growth inhibition, 48 h

`COc1ccc2[nH]c(O)c(C(=Nc3ccc(N(C)C(=O)CN4CCN(C)CC4)cc3)c3ccccc3)c2c1`: the GI50 was 2.73 µM in the test on A549 NSCLC; 2.68 µM in the test with CCRF-CEM leukemia; 1.26 µM with M14 melanoma; 1.88 µM with MDA-MB-231 breast; 1.73 µM with NCI-H23 lung; 2.12 µM with SK-MEL-2 melanoma. Further, the GI50 in the test on SK-MEL-28 melanoma is 2.11 µM; in the test with SK-MEL-5 melanoma, 1.75 µM; in the test on SNB-75 CNS it was 1.07 µM; in the test on TK-10 renal, 1.99 µM. The TGI with A549 NSCLC was 14.1 µM; in the test with CCRF-CEM leukemia it was 10.4 µM; in the test on M14 melanoma, 2.89 µM; in the test with MDA-MB-231 breast it was 5.17 µM; in the test with NCI-H23 lung it was 12.2 µM; in the test on SK-MEL-2 melanoma it was 5.37 µM. Further, the TGI with SK-MEL-28 melanoma was 6.12 µM; in the test on SK-MEL-5 melanoma, 3.43 µM; in the test on SNB-75 CNS, 2.64 µM; in the test with TK-10 renal, 7.08 µM.

For `C=CC(=O)Nc1cc2c(Nc3ccc(F)c(Cl)c3)ncnc2cc1OCCCN1CCOCC1`, the GI50 in the test on A549 NSCLC was 2.37 µM and 5.1 µM; in the test with CCRF-CEM leukemia, 2.19 µM and 2.63 µM; with M14 melanoma it was 1.7 µM and 4.48 µM; in the test on MDA-MB-231 breast, 1.74 µM and 2.32 µM; with NCI-H23 lung it was 1.82 µM and 2.39 µM; with SK-MEL-2 melanoma, 1.96 µM and 2.17 µM. Further, the GI50 in the test with SK-MEL-28 melanoma is 1.67 µM and > 6.85 µM; in the test on SK-MEL-5 melanoma, 3.3 µM and > 7.32 µM; in the test on SNB-75 CNS it was 0.47 µM and 1.06 µM; in the test with TK-10 renal it was < 0.01 µM and 0.00217 µM. Besides, the TGI with A549 NSCLC was 17 µM and > 10 µM; in the test with CCRF-CEM leukemia, more than 27.4 µM; in the test on M14 melanoma it was 3.52 µM and > 10 µM; in the test with MDA-MB-231 breast it was 4.71 µM and 9.93 µM; in the test with NCI-H23 lung it was 3.94 µM and > 6.12 µM; in the test on SK-MEL-2 melanoma, 3.79 µM and > 6.51 µM. The TGI with SK-MEL-28 melanoma was 3.21 µM and > 10 µM; with SK-MEL-5 melanoma it was 13.3 µM and > 10 µM; in the test with SNB-75 CNS, 4.54 µM and > 7.95 µM; in the test on TK-10 renal, 9.6 µM and 6.78 µM.

With `CCn1c2ccc(O)cc2c2c(C)c3c[n+](C)ccc3c(C)c21`, the GI50 was 3.81 µM in the test with A549 NSCLC; 5.7 µM with CCRF-CEM leukemia; 4.4 µM in the test on M14 melanoma; 9.58 µM with MDA-MB-231 breast; 1.44 µM in the test on NCI-H23 lung; 3.91 µM in the test with SK-MEL-2 melanoma. Also, the GI50 in the test with SK-MEL-28 melanoma was 2.83 µM; in the test with SK-MEL-5 melanoma, 2.27 µM; with SNB-75 CNS, 1.18 µM; with TK-10 renal, 24.3 µM. Also, the TGI in the test on A549 NSCLC was more than 100 µM; in the test with CCRF-CEM leukemia it was more than 100 µM; with M14 melanoma, 29.2 µM; with MDA-MB-231 breast, more than 100 µM; with NCI-H23 lung, 25.8 µM; with SK-MEL-2 melanoma it was 20.1 µM. Further, the TGI is 16 µM with SK-MEL-28 melanoma, 10.8 µM with SK-MEL-5 melanoma, 35.8 µM with SNB-75 CNS and more than 100 µM in the test with TK-10 renal.

In the case of `CCn1c(-c2nonc2N)nc2c(C#CC(C)(C)O)nc(OCCNC)cc21`, the GI50 was 8.27 µM in the test on A549 NSCLC; 7.25 µM in the test on CCRF-CEM leukemia; 8.15 µM with M14 melanoma; 8.9 µM with MDA-MB-231 breast; 8.81 µM in the test with NCI-H23 lung; 6.64 µM in the test on SK-MEL-2 melanoma. For the same compound, the GI50 with SK-MEL-28 melanoma was 8.49 µM; in the test with SK-MEL-5 melanoma, 5.19 µM; with SNB-75 CNS, 7.78 µM; in the test on TK-10 renal it was 6.35 µM. In addition, the TGI in the test on A549 NSCLC is more than 25 µM; in the test with CCRF-CEM leukemia, more than 25 µM; in the test with M14 melanoma, 22.6 µM; in the test with MDA-MB-231 breast it was more than 25 µM; in the test with NCI-H23 lung it was more than 25 µM; in the test with SK-MEL-2 melanoma, 15.4 µM. The TGI in the test with SK-MEL-28 melanoma was more than 25 µM; with SK-MEL-5 melanoma, 12 µM; with SNB-75 CNS it was more than 25 µM; with TK-10 renal it was 20.4 µM.

As to `Cc1cc(Cl)ccc1Nc1nc(C(F)(F)F)ccc1C(=O)N/N=C/c1ccc([N+](=O)[O-])cc1`, the GI50 in the test on A549 NSCLC is 1.07 µM; with CCRF-CEM leukemia it was 0.144 µM; with M14 melanoma, 2.18 µM; in the test with MDA-MB-231 breast it was 1.86 µM; with NCI-H23 lung it was 1.65 µM; in the test on SK-MEL-2 melanoma, 1.92 µM. The GI50 in the test with SK-MEL-28 melanoma was 1.22 µM; in the test with SK-MEL-5 melanoma, 1.87 µM; in the test with SNB-75 CNS, 1.71 µM; in the test on TK-10 renal, 1.95 µM. The TGI in the test on A549 NSCLC is 5.54 µM; in the test with CCRF-CEM leukemia it was 0.526 µM; in the test with M14 melanoma, 7.96 µM; in the test on MDA-MB-231 breast it was 5.78 µM; in the test with NCI-H23 lung, more than 22 µM; in the test on SK-MEL-2 melanoma, 8.5 µM. For the same compound, the figures for the TGI in the test with SK-MEL-5 melanoma, with SNB-75 CNS and in the test on TK-10 renal were 4.08 µM, 10 µM and 8.32 µM, respectively.
